This is an account of results in paper PMC9718561, “Multi-functional chitosan copolymer modified nanocrystals as oral andrographolide delivery systems for enhanced bioavailability and anti-inflammatory efficacy” (Drug Delivery, 2022).

Data set [1] is described as follows: Real-time distribution in the gastrointestinal tract (fluorescent labelling, live imaging). The format is in vivo. The settings on record: SD rats, oral. The protocol:
We performed real-time distribution study to explore whether the functional materials have played their full enhancing ability in oral absorption. We used acridine orange to label SDS, fluorescein isothiocyanate isomer I to label TPGS, CS, SDS-TPGS and SDS-CS-TPGS, and rhodamine B to label ADR, respectively. […] The SDS-CS-TPGS + ADR group was administered with SDS-CS-TPGS and ADR at the same time. The animals were killed by cervical dislocation at the pre-set time points of 0.5 h, 1 h, 2 h and 3 h. Then the gastrointestinal tract was removed in time and put it into a small animal live imaging system (Lumina XR, PerkinElmer, America) for photographic observation.
The distribution of gastrointestinal segments in each group of animals at each time period was observed by in live imaging system (Figure 5A). […] In order to further understand the distribution of various materials and ADR in the gastrointestinal tract, we divided the gastrointestinal tract of SD rats into ten parts such as stomach, small intestine which divided into 8 sections on average and colon, as shown in Figure 5(B). […] For example, when SDS-CS-TPGS were taken orally with ADR, the time of 50% SDS-CS-TPGS passing part 4, part 5 and part 6 of small intestine was 0.67 ± 0.01 h, 0.98 ± 0.06 h and 1.04 ± 0.13 h, respectively, which were not much different from that of ADR, as the passing time of ADR in part 4, part 5 and part 6 was 0.65 ± 0.04 h, 1.02 ± 0.01 h and 1.03 ± 0.01 h, respectively. However, these times of other materials and ADR were different, indicating the materials and ADR could not reach the same site of gastrointestinal tract at the same time, which may limit the absorption enhancing ability of functional materials. Combining the results described above, we can conclude that materials in physical mixture may separate in intestinal, and synthesized copolymer could reduce the separation and has better ability to […] the absorption site of drug at the same time.
The passing times of 50% ADR and polymer materials passed through the fourth (T4(50)), fifth (T5(50)) and sixth (T6(50)) segments of small intestine of SD rats were shown in Table S2, and we can find the distribution of ADR and copolymer (S-C-T) were similar.

Data set [2] concerns ear swelling ICR mice model. As to the kind of experiment: Arachidonic acid ear swelling model, ear swelling rate. In kind it is in vivo. The settings on record: indomethacin 10 mg/kg po; ADR injection 10 mg/kg iv; ADR 100 mg/kg po; S-C-TANs L 25, M 50, H 100 mg/kg po. The protocol: To explore whether the enhancing on bioavailability could result in enhanced therapeutic effect, we studied the anti-inflammatory efficacy of nanocrystal. The ear swelling ICR mice model was established by using arachidonic acid and the anti-inflammatory efficacy was evaluated by employing ear swelling rate of ICR mice serum levels of TNF-α, IL-6 and IL-1β, as pharmacodynamic index. In this study, fifty-six ICR mice were randomly divided into 8 groups, named control group (normal animal), model group (without drug), indomethacin group (positive drug, 10 mg/kg, po), ADR injection group (10 mg/kg, iv), ADR group (100 mg/kg, po), L-S-C-TANs group (low dose of S-C-TANs, 25 mg/kg, po), M-S-C-TANs group (middle dose of S-C-TANs, 50 mg/kg, po) and H-S-C-TANs group (high dose of S-C-TANs, 100 mg/kg, po). […] Cellular inflammatory factors, like TNF-α, IL-1β, and IL-6, were measured by Elisa Kit.
To explore whether the enhancing on bioavailability could result in enhanced therapeutic effect, we studied the anti-inflammatory efficacy of nanocrystal. The ear swelling ICR mice model was established by using arachidonic acid and the anti-inflammatory efficacy was evaluated by employing ear swelling rate of ICR mice serum levels of TNF-α, IL-6 and IL-1β, as pharmacodynamic index. […]

A further data set relates to MDCK cells. As to the kind of experiment: Cytotoxicity of nanocrystals. The format is cell-based. The settings on record: drug concentration above 100 μg/mL.
Data set [3] is described as follows: Saturated solubility study (shaking 24 h, HPLC). The format is physicochemical. The settings on record: read-out: Saturation solubility. The protocol: Briefly, excess formulation powders were added into 5 mL buffers, and shaked at 37 °C for 24 h, then the undissolved drug was removed by centrifuging at 13, 000 rpm for 10 min and filtering with 0.22 μm microporous membrane. The drug concentration in the filtrate was determined by HPLC. The freshly prepared ANs, SANs, TANs and S-C-TANs were directly shaking for 24 h at 37 °C, and treated as that of andrographolide, thereafter. ADR was analyzed at 225 nm and at 35 °C using HPLC linked to Ultimate^Ⓡ XB-C18 (4.6 mm × 250 mm, 5 μm) column. The mobile phase which consisted of methanol and water (60:40, v/v) was pumped at 1 mL/min. The HPLC analysis met the methodological requirements by validating.

Data set [4] can be described thus: Oil-water partition coefficient (Log P). The format is physicochemical. An excerpt:
Combining the saturated solubility and log P of each group (shown in Table S1, it could be seen that the greater the saturated solubility is, the greater the log P value is.

Data set [5] is described as follows: Pharmacokinetic study after gavage. The settings on record: SD rats, 50 mg/kg by gavage. In kind it is in vivo. The protocol:
We explored oral absorption enhancing ability of andrographolide nanocrystals by operating pharmacokinetic studies on SD rat. In brief, twenty-five SD rats were randomly divided into 5 groups, and administrated ADR-water (dispersed ADR in water), ANs, SANs, TANs and S-C-TANs at 50 mg/kg by gavage (Chen et al., [2014]). After administrated for 0.083, 0.25, 0.5, 0.75, 1, 2, 4, 6, 8, 12 and 24 h, about 0.3 mL blood sample was collected by retro-orbital puncture. The plasma was centrifuged at 4,000 r/min for 10 min at 4 °C and stored at −20 °C. The andrographolide concentrations in plasma samples were detected after treatments as following: 50 μL plasma samples, 25 μL luteolin solution (internal standard 10.11 μg/mL) and 200 μL methanol solution were mixed by vortexing for 5 min. The mixed solution was subsequently centrifuged at 12,000 rpm for 10 min and the supernatant was collected and dried at room temperature under a stream of nitrogen. The residue was reconstituted with 50 μL methanol and mixed by vortexing for 3 min. after centrifuging at 12,000 rpm for 10 min, the supernatant was injected into the HPLC system for analysis. The ADR concentration in plasma samples was detected by HPLC following the conditions shown in supplementary materials, and pharmacokinetic parameters were calculated using the DAS 3.3.0 pharmacokinetics program (developed by the Clinical Trial Center of Shanghai University of Traditional Chinese Medicine, Shanghai, China).
Andrographolide was analyzed at 225 nm using HPLC linked to a Ultimate^Ⓡ XB-C18 (4.6 mm ×250 mm, 5μm) column. The mobile phase, consisting of methanol and 0.2% phosphoric acid (46:54, v/v), was pumped at 1 mL/min. The column temperature was 35℃.

Where [6] appears, read: SDS-CS-TPGS and ADR administered at the same time.

Structures are written as SMILES. In brackets after ≈: the same amount, converted by molar mass. Where two headings read alike, the source gives them in different places.

Regarding `CCCCCCCCCCCCOS(=O)(=O)[O-].[Na+]` [SDS, Sodium dodecyl sulfate], in data set [1] (given alone), the “T4(50), time of 50% passing the fourth segment of small intestine” value was found to be 0.89 ± 0.03 h; the “T5(50), time of 50% passing the fifth segment of small intestine” value came to 1.52 ± 0.12 h; the “T6(50), time of 50% passing the sixth segment of small intestine” value was 2.40 ± 0.02 h.

`COc1ccc2c(c1)c(CC(=O)O)c(C)n2C(=O)c1ccc(Cl)cc1` [indomethacin, Indomethacin]: the “anti-ear swelling efficacy, order of all groups” value in data set [2] was “ADR injection group > H-S-C-TANs group > positive drug group > M-S-C-TANs group > ADR group ≈ L-S-C-TANs group”.

By logP is commonly meant a log measure of how a compound divides between an organic and an aqueous phase. High values mean higher lipophilicity, low ones lower lipophilicity. One may read the bioavailability as the share of a dose that reaches the circulation, judged against a reference dose that is usually intravenous. The AUC(0-inf) is total exposure, with the tail of the curve extrapolated. Read a high AUC(0-inf) as more exposure. What is called AUC(0-t) is the area under the concentration-time curve up to a stated or last time point. A word on the Cmax: it is the maximum level reached in the sampled fluid or tissue. In general, Tmax refers to the time from dosing to the highest level. Broadly, the half-life is the time needed for the level to fall by half in the phase considered. Take `C=C1CC[C@@H]2[C@](C)(CO)[C@H](O)CC[C@@]2(C)[C@@H]1C/C=C1/C(=O)OC[C@H]1O` [ADR, andrographolide]: in the data set with MDCK cells, the cytotoxicity entry is recorded as “toxicity of ADR emerged”. In addition, the solubility at 24 h was 37.68 ± 0.24 µg/mL (≈ 108 µM) in data set [3] (citrate - disodium hydrogen phosphate buffer, 37 °C, pH 4, aqueous buffer, thermodynamic from solid, pH4.0 (C-DHPB)); 38.2 ± 0.95 µg/mL (≈ 109 µM) in data set [3] (hydrochloric acid aqueous solution, 37 °C, pH 1.2, simulated gastric fluid, thermodynamic from solid, pH1.2 (HCl)); 32.5 ± 0.42 µg/mL (≈ 92.8 µM) in data set [3] (phosphate buffered saline, 37 °C, pH 6.8, aqueous buffer, thermodynamic from solid, pH6.8 (PBS)); 40.8 ± 0.64 µg/mL (≈ 116 µM) in data set [3] (purified water, 37℃). In addition, the logP in data set [4] (Water, 25℃) came to 1.78 ± 0.02; in data set [4] (Water, 37℃), 1.76 ± 0.01; in data set [4] (pH 1.2, pH1.2, 25℃) it was 1.85 ± 0.02; in data set [4] (pH 1.2, pH1.2, 37℃), 1.84 ± 0.02; in data set [4] (pH 4, pH4.0, 25℃), 1.85 ± 0.02; in data set [4] (pH 4, pH4.0, 37℃), 1.87 ± 0.02. The logP was determined as 1.88 ± 0.02 in data set [4] (pH 6.8, pH6.8, 25℃) and 1.94 ± 0.02 in data set [4] (pH 6.8, pH6.8, 37℃). Besides, the “T4(50), time of 50% passing the fourth segment of small intestine” value came to 0.65 ± 0.04 h in data set [1] (setting [6]) and 0.65 ± 0.02 h in data set [1] (given alone). Moreover, the “T5(50), time of 50% passing the fifth segment of small intestine” value in data set [1] (setting [6]) stood at 1.02 ± 0.01 h; in data set [1] (given alone) it was 1.16 ± 0.10 h. Besides, the “T6(50), time of 50% passing the sixth segment of small intestine” value in data set [1] (setting [6]) is 1.03 ± 0.01 h; in data set [1] (given alone), 2.08 ± 0.05 h. Besides, the “Fr (relative bioavailability)” value in data set [5] (compared with ADR-Water) was determined as 100%. In addition, the bioavailability in data set [5] (rat, plasma, po, read-out: Fa (absolute bioavailability)) came out at 1.83%. The compound further had an AUC(0-inf) in data set [5] (rat, po, plasma) of 1290 ng·h/mL. Further, the AUC(0-t) in data set [5] (rat, po, plasma) came to 1290 ± 218 ng·h/mL. The compound also registered a Cmax in data set [5] (rat, po, plasma) of 229 ± 82 ng/mL. The Tmax in data set [5] (rat, po, plasma) turned out to be 0.717 ± 0.415 h. Besides, the half-life in data set [5] (rat, po, plasma) was 2.81 ± 0.232 h. In data set [5] (rat, po, plasma, read-out: CLz/F (converted)), the CL/F was 661 mL/min/kg. In addition, the MRT last in data set [5] (rat, po, plasma, read-out: MRT0-t) was 5.66 ± 1.26 h. Further, the MRT inf in data set [5] (rat, po, plasma, read-out: MRT0-∞) is 5.75 ± 1.26 h. For the same compound, the Vd/F in data set [5] (rat, po, plasma, read-out: Vz/F) worked out at 161 ± 31.4 L/kg. Moreover, the “anti-ear swelling efficacy, order of all groups” value in data set [2] is “ADR injection group > H-S-C-TANs group > positive drug group > M-S-C-TANs group > ADR group ≈ L-S-C-TANs group”.
